Assay results published in paper PMC4171606, “A novel copper(I) complex induces ER-stress-mediated apoptosis and sensitizes B-acute lymphoblastic leukemia cells to chemotherapeutic agents” (Oncotarget, 2014).

Experiments:
Format in all cases: cell-based, human
SEM and RS4;11 cells = test: Annexin-V-FITC/PI flow cytometry (apoptosis); conditions: CP 2.5 μM, both cell lines
Procedure: (§1) FIGURE 1 CP uptake and effects on cell cycle and apoptosis induction A) RS4;11, SEM, THP1, Jurkat cell lines and healthy PBMC were incubated with 6.25, 12.5 and 25 μM of CP for 24 h. The intracellular accumulation of CP was detected by GF-AAS analysis. B) SEM and RS4;11 cells were treated with the indicated concentrations of CP for 24 h, cell cycle distribution and Sub-G1 contents were analyzed by flow cytometry after cell staining with PI. The percentages of each phase of the cell cycle (G1, S, G2/M) were calculated on living cells whereas the percentages of cells with hypodiploid DNA content peak (subG1) was referred to cell population characterized by the appearance of subG1 peak. C) SEM and RS4;11 cells were incubated with 2.5 μM CP for the indicated times and analyzed by flow cytometry after double staining with Annexin-V-FITC and PI. Data are represented as mean ± S.E.M. of three independent experiments.
To characterize the mode of cell death induced by CP, we performed a cytofluorimetric analysis using PI and Annexin-V-FITC, which stain DNA and phosphatidylserine residues, respectively. After a time course of 1.5, 3, 6, 12 and 24 h of drug treatment (2.5 μM), SEM and RS4;11 cells were labeled with the two dyes and analyzed by flow cytometry. […]

PHA-stimulated PBMC = test: MTT viability of healthy cells, 24 h
Procedure: (§2) CP growth inhibitory activity was measured on primary cultures derived from pediatric patients affected by B-acute lymphoblastic leukemia. […] In particular, in resting and in PHA-stimulated PBMC, and in CD19^+ cells GI50 was higher than 10 μM confirming that CP preferentially affects leukemia cells.
(§3) FIGURE 6 CP effects on B-ALL primary cultures (A) Blast cells from six B-ALL patients were incubated for 24 h with different concentrations of CP. For the sake of comparison CD19^+ cells from peripheral blood of healthy donors, and PBMC were also incubated with CP in the presence or absence of PHA. Cell viability were assayed by MTT analysis. Data are represented as mean ± S.E.M of four independent experiments. (B) Bone marrow cells from healthy donors were treated for 24 h with CP (2.5 μM and 5 μM). Cell viability was evaluated on the whole population by flow cytometry after staining the cells with Annexin-V-FITC and PI. are represented as mean ± S.E.M of 3 independent experiments. (C) Western Blot analysis of GRP78 and CHOP expression, PARP cleavage and caspase-3 activation, on protein extracts of blast cells from B-ALL patients treated with CP (2.5 μM) for 12 h.
(§4) Peripheral blood mononuclear cells (PBMC) and bone marrow cells from healthy donors were obtained by separation on Lymphoprep (Fresenius KABI, Norge AS) gradient. After extensive washing, cells were resuspended (1.0 × 10^6 cells/ml) in RPMI1640 with 10% fetal bovine serum and incubated overnight in 96-well tissue culture microtiter plate. For cytotoxicity evaluations in proliferating PBMC cultures, non-adherent cells were resuspended in growth medium, containing 2.5 μg/ml phytohematoglutinin (PHA) (Irvine Scientific). To isolate B-lymphocyte, PBMC obtained by Lymphoprep (Fresenius KABI, Norge AS) separation were labeled with anti-CD19-APC (BD Biosciences, Italy) and collected by cell sorting.

resting PBMC = test: MTT viability of healthy cells, 24 h
Procedure: as §2, §3, §4

[1] = tested on: CD19+ cells from peripheral blood of healthy donors; test: MTT viability of healthy cells, 24 h
Procedure: as §2, §3, §4

[2] = tested on: RS4;11 (B-acute lymphoblastic leukemia); test: MTT growth inhibition, 72 h; conditions: RS4;11, 72 h, mean ± SE
Procedure: [Cu(thp)4][PF6] (CP) was evaluated for its growth inhibition activity on a panel of twelve different human leukemia cell lines (five B-acute lymphoblastic leukemia, three T-acute lymphoblastic leukemia, three acute myeloid leukemia and one chronic myeloid leukemia). Cells were treated for 72 h with CP and cell viability was evaluated by MTT test. […] This abnormal high expression of proteasomal proteins and mRNA seem to be correlated to the hyperproliferation of these cancer cells and to the sensitivity towards proteasome inhibitors.
The human leukemia cell lines RS 4;11, SEM, REH, RCH-ACV, MHH-CALL2, Jurkat, CCRF-CEM, HSB2, HL-60, K562, THP-1, MV4;11 were purchased from the American Type Culture Collection. Cells were cultured in RPMI 1640 (Life Technologies, Italy) supplemented with 10% fetal bovine serum (FBS), glutamine (2 mM; Life Technologies, Italy), penicillin (100 U/ml; Life Technologies, Italy) and streptomycin (100 μg/ml; Life Technologies, Italy), and maintained at 37°C in a humidified atmosphere with 5% CO2. The cytotoxic activity of CP was determined using a standard 3-[4,5-dimethylthiazol-2-yl]-2,5-diphenyltetrazodium bromide (MTT) based colorimetric assay (Sigma-Aldrich, Italy). Briefly, cells were seeded at a density of 2×10^4 cells/well in 96-well microtiter plates. After 24 h, cells were exposed to the test compound. After different times, cell survival was determined by the addition of an MTT solution as previously described.

[3] = tested on: RS4;11, SEM, Jurkat and THP-1 cell lines and PBMC from healthy donors; test: Cellular uptake, intracellular copper by GF-AAS; conditions: 6.25, 12.5 and 25 μM CP, 24 h, leukemic cells vs healthy PBMC
Procedure: In an attempt to correlate the cytotoxic activity of CP with its cellular uptake, the intracellular copper content was evaluated in RS4;11, SEM, Jurkat and THP-1 cell lines and PBMC from healthy donors treated for 24 h with increasing concentrations of CP. The intracellular copper amount (Figure 1, panel A) was quantified by GF-AAS analysis (Graphite Furnace Atomic Absorption Spectrometry).
as §1, with “experiments. […]” for “experiments.”

Resting healthy PBMC = test: MTT growth inhibition, 72 h; conditions: mean ± SE

F[P-](F)(F)(F)(F)F.OCP(CO)CO.OCP(CO)CO.OCP(CO)CO.OCP(CO)CO.[Cu+] [CP, [Cu(thp)4][PF6]]
onset of significant levels of Annexin-V positive cells (SEM and RS4;11 cells): ≥ 6 h | GI50 (PHA-stimulated PBMC): > 10 µM | GI50 (resting PBMC): > 10 µM | GI50 [1]: > 10 µM | GI50 [2]: 0.3 ± 0.01 µM | intracellular copper content [3]: marked increase of copper intracellular content in comparison with healthy PBMC | GI50 (Resting healthy PBMC): 22.7 ± 2.9 µM
